What was measured:
Assay type in all cases: in vivo
Details in all cases: evaluated after 13 days
[1] = system: Abutilon theophrasti (ABUTH); test: Post-emergence glasshouse herbicide test
Method: (§1) Seeds of a variety of test species are sown in standard soil in pots (Lolium perenne (LOLPE), Amaranthus retoflexus (AMARE), Abutilon theophrasti (ABUTH), Setaria faberi (SETFA), Echinochloa crus-galli (ECHCG), Ipomoea hederacea (IPOHE)). After cultivation for one day (pre-emergence) or after 8 days cultivation (post-emergence) under controlled conditions in a glasshouse (at 24/16° C., day/night; 14 hours light; 65% humidity), the plants are sprayed with an aqueous spray solution derived from the formulation of the technical active ingredient in acetone/water (50:50) solution containing 0.5% Tween™ 20 (polyoxyethelyene sorbitan monolaurate, CAS RN 9005-64-5). Compounds are applied at 125 g/h unless otherwise indicated. The test plants are then grown in a glasshouse under controlled conditions in a glasshouse (at 24/16° C., day/night; 14 hours light; 65% humidity) and watered twice daily. After 13 days for pre- and post-emergence, the test is evaluated for the percentage damage caused to the plant. The biological activities are shown in the following table on a five-point scale (5=80-100%; 4=60-79%; 3=40-59%; 2=20-39%; 1=0-19%).

[2] = system: Setaria faberi (SETFA); test: Post-emergence glasshouse herbicide test
Method: as §1

[3] = system: Echinochloa crus-galli (ECHCG); test: Post-emergence glasshouse herbicide test
Method: as §1

[4] = system: Amaranthus retoflexus (AMARE); test: Post-emergence glasshouse herbicide test
Method: as §1

[5] = system: Ipomoea hederacea (IPOHE); test: Post-emergence glasshouse herbicide test
Method: as §1

[6] = system: Abutilon theophrasti (ABUTH); test: Pre-emergence glasshouse herbicide test
Method: as §1

[7] = system: Setaria faberi (SETFA); test: Pre-emergence glasshouse herbicide test
Method: as §1

[8] = system: Echinochloa crus-galli (ECHCG); test: Pre-emergence glasshouse herbicide test
Method: as §1

[9] = system: Amaranthus retoflexus (AMARE); test: Pre-emergence glasshouse herbicide test
Method: as §1

[10] = system: Ipomoea hederacea (IPOHE); test: Pre-emergence glasshouse herbicide test
Method: as §1

Row | Structure (SMILES) | percentage damage caused to the plant, ABUTH ([1]; 125 g/h) | percentage damage caused to the plant, SETFA ([2]; 125 g/h) | percentage damage caused to the plant, ECHCG ([3]; 125 g/h) | percentage damage caused to the plant, AMARE ([4]; 125 g/h) | percentage damage caused to the plant, IPOHE ([5]; 125 g/h) | percentage damage caused to the plant, ABUTH ([6]; 125 g/h) | percentage damage caused to the plant, SETFA ([7]; 125 g/h) | percentage damage caused to the plant, ECHCG ([8]; 125 g/h) | percentage damage caused to the plant, AMARE ([9]; 125 g/h) | percentage damage caused to the plant, IPOHE ([10]; 125 g/h) | percentage damage caused to the plant, ABUTH ([1]; *Applied at 250 g/ha) | percentage damage caused to the plant, SETFA ([2]; *Applied at 250 g/ha) | percentage damage caused to the plant, ECHCG ([3]; *Applied at 250 g/ha) | percentage damage caused to the plant, AMARE ([4]; *Applied at 250 g/ha) | percentage damage caused to the plant, IPOHE ([5]; *Applied at 250 g/ha) | percentage damage caused to the plant, ABUTH ([6]; *Applied at 250 g/ha) | percentage damage caused to the plant, SETFA ([7]; *Applied at 250 g/ha) | percentage damage caused to the plant, ECHCG ([8]; *Applied at 250 g/ha) | percentage damage caused to the plant, AMARE ([9]; *Applied at 250 g/ha) | percentage damage caused to the plant, IPOHE ([10]; *Applied at 250 g/ha)
1 | CC(C)CS(=O)(=O)c1c(OC(F)F)ccc(C(=O)Nc2nnnn2C)c1Cl [Compound 1.052] | 5 (5=80-100%) | 4 (4=60-79%) | 4 (4=60-79%) | 4 (4=60-79%) | 5 (5=80-100%) | 5 (5=80-100%) | 5 (5=80-100%) | 5 (5=80-100%) | 5 (5=80-100%) | 5 (5=80-100%) | – | – | – | – | – | – | – | – | – | –
2 | CCn1nnnc1NC(=O)c1ccc(OC(F)F)c(S(=O)(=O)CC(C)C)c1Cl [Compound 1.053] | 5 (5=80-100%) | 5 (5=80-100%) | 5 (5=80-100%) | 5 (5=80-100%) | 5 (5=80-100%) | 5 (5=80-100%) | 5 (5=80-100%) | 5 (5=80-100%) | 5 (5=80-100%) | 4 (4=60-79%) | – | – | – | – | – | – | – | – | – | –
3 | CC(C)S(=O)(=O)c1c(OC(F)F)ccc(C(=O)Nc2nnnn2C)c1Cl [Compound 1.054] | 4 (4=60-79%) | 4 (4=60-79%) | 4 (4=60-79%) | 4 (4=60-79%) | 4 (4=60-79%) | 5 (5=80-100%) | 5 (5=80-100%) | 5 (5=80-100%) | 5 (5=80-100%) | 4 (4=60-79%) | – | – | – | – | – | – | – | – | – | –
4 | CCn1nnnc1NC(=O)c1ccc(OCC(F)(F)F)c(S(=O)(=O)CC)c1C [Compound 1.063] | 5 (5=80-100%) | 5 (5=80-100%) | 5 (5=80-100%) | 5 (5=80-100%) | 3 (3=40-59%) | 5 (5=80-100%) | 5 (5=80-100%) | 5 (5=80-100%) | 5 (5=80-100%) | 4 (4=60-79%) | – | – | – | – | – | – | – | – | – | –
5 | CCn1nnnc1NC(=O)c1ccc(OCC(F)(F)F)c(S(=O)(=O)CC)c1Cl [Compound 1.065] | 5 (5=80-100%) | 5 (5=80-100%) | 5 (5=80-100%) | 5 (5=80-100%) | 4 (4=60-79%) | 5 (5=80-100%) | 5 (5=80-100%) | 5 (5=80-100%) | 5 (5=80-100%) | 3 (3=40-59%) | – | – | – | – | – | – | – | – | – | –
6 | CCCSc1c(OC(F)F)ccc(C(=O)Nc2nnnn2C)c1Cl [Compound 1.066] | 5 (5=80-100%) | 4 (4=60-79%) | 4 (4=60-79%) | 5 (5=80-100%) | 5 (5=80-100%) | 5 (5=80-100%) | 5 (5=80-100%) | 5 (5=80-100%) | 5 (5=80-100%) | 3 (3=40-59%) | – | – | – | – | – | – | – | – | – | –
7 | CCCSc1c(OC(F)F)ccc(C(=O)Nc2nnnn2CC)c1Cl [Compound 1.067] | 5 (5=80-100%) | 4 (4=60-79%) | 4 (4=60-79%) | 5 (5=80-100%) | 4 (4=60-79%) | 4 (4=60-79%) | 4 (4=60-79%) | 5 (5=80-100%) | 5 (5=80-100%) | 2 (2=20-39%) | – | – | – | – | – | – | – | – | – | –
8 | Cc1nnc(NC(=O)c2ccc(OC(F)(F)F)c(S(C)(=O)=O)c2Cl)o1 [Compound 2.005] | – | – | – | – | – | – | – | – | – | – | 5 (5=80-100%) | 5 (5=80-100%) | 5 (5=80-100%) | 5 (5=80-100%) | 5 (5=80-100%) | 5 (5=80-100%) | 5 (5=80-100%) | 5 (5=80-100%) | 5 (5=80-100%) | 1 (1=0-19%)
9 | CSc1c(OC(F)(F)F)ccc(C(=O)Nc2nnc(C)o2)c1Cl [Compound 2.006] | – | – | – | – | – | – | – | – | – | – | 5 (5=80-100%) | 5 (5=80-100%) | 5 (5=80-100%) | 5 (5=80-100%) | 5 (5=80-100%) | 2 (2=20-39%) | 1 (1=0-19%) | 1 (1=0-19%) | 5 (5=80-100%) | 1 (1=0-19%)
10 | CCS(=O)(=O)c1cc(C(=O)Nc2nnc(C)o2)ccc1OC(F)(F)F [Compound 2.009] | 4 (4=60-79%) | 5 (5=80-100%) | 5 (5=80-100%) | 5 (5=80-100%) | 4 (4=60-79%) | 5 (5=80-100%) | 5 (5=80-100%) | 5 (5=80-100%) | 5 (5=80-100%) | 2 (2=20-39%) | – | – | – | – | – | – | – | – | – | –
11 | CCSc1c(OC(F)(F)F)ccc(C(=O)Nc2nnc(C)o2)c1Cl [Compound 2.010] | 5 (5=80-100%) | 5 (5=80-100%) | 5 (5=80-100%) | 5 (5=80-100%) | 4 (4=60-79%) | 4 (4=60-79%) | 5 (5=80-100%) | 5 (5=80-100%) | 5 (5=80-100%) | 1 (1=0-19%) | – | – | – | – | – | – | – | – | – | –
12 | CCS(=O)(=O)c1c(OC(F)(F)F)ccc(C(=O)Nc2nnc(C)o2)c1C [Compound 2.011] | 5 (5=80-100%) | 5 (5=80-100%) | 5 (5=80-100%) | 5 (5=80-100%) | 4 (4=60-79%) | 5 (5=80-100%) | 5 (5=80-100%) | 5 (5=80-100%) | 5 (5=80-100%) | 5 (5=80-100%) | – | – | – | – | – | – | – | – | – | –
13 | CCSc1c(OC(F)F)ccc(C(=O)Nc2nnc(C)o2)c1Cl [Compound 2.012] | 5 (5=80-100%) | 5 (5=80-100%) | 5 (5=80-100%) | 5 (5=80-100%) | 4 (4=60-79%) | 4 (4=60-79%) | 5 (5=80-100%) | 5 (5=80-100%) | 5 (5=80-100%) | 3 (3=40-59%) | – | – | – | – | – | – | – | – | – | –
14 | CCS(=O)(=O)c1c(OC(F)F)ccc(C(=O)Nc2nnc(C)o2)c1Cl [Compound 2.013] | 5 (5=80-100%) | 5 (5=80-100%) | 5 (5=80-100%) | 5 (5=80-100%) | 4 (4=60-79%) | 5 (5=80-100%) | 5 (5=80-100%) | 5 (5=80-100%) | 5 (5=80-100%) | 4 (4=60-79%) | – | – | – | – | – | – | – | – | – | –

Reference: US20220402882A1, “HERBICIDAL COMPOUNDS” (SYNGENTA CROP PROTECTION AG, priority 2019, published 2022)
